# Test results published in US5298502A, “Method and composition for photodynamic treatment and detection of tumors” (priority 1991, dated 1994).
# Columns and labels:
# [1] = test system: cotyledons harvested from etiolated cucumber seedlings; experiment: Percent Efflux test (Efflux Experiment); format: tissue-based, Cucumis sativus L.; conditions: 100 nM concentration
# Procedure: The enzyme-inhibiting agent is preferably one which has a high capacity for disrupting the plasmalemma of plant material. One test for that capacity is the Efflux Experiment described in the article by Halling and Peters in Plant Physiology, 84, 1114-5 (1987).
# The Percent Efflux test employs cotyledons harvested from etiolated cucumber seedlings. In an initial step a mass of cotyledons is treated in the dark with an aqueous buffered solution containing a radiolabelled sugar. The amount of the sugar taken up by the cotyledons is then measured (by counting, as described below). […] The cotyledons, in contact with the aqueous solutions, are then exposed to light for 16 hours, and then separated from the aqueous solutions; the latter are then measured (by counting) to determine their contents of radiolabelled material. The results are expressed as Percent Efflux Which is calculated as follows, where S is the count of radiolabelled material (per cotyledon) taken up by the cotyledons in their initial treatment, ST is the count of radiolabelled material (per cotyledon) in the aqueous solution containing the compound to be tested, after the exposure to light and Sc is the count of radiolabelled material (per cotyledon) in the aqueous solution of the control, after exposure to light: [formula] […]
# [2] = test system: mosquito larvae; experiment: Insecticidal test against mosquito larvae; conditions: in vivo
# [3] = test system: cabbage loopers; experiment: Insecticidal test against cabbage loopers; conditions: in vivo
# [4] = test system: HeLa cells; experiment: Growth inhibition and Proto IX accumulation in HeLa cells (Example 2); format: cell-based, human; conditions: 100 μM agent
# Procedure: HeLa cells, in logarithmic growth phase having been cultured for 6 days in six one-liter Falcon tissue culture flasks at 37° C.), were washed in phosphate buffered saline (PBS). A 0.25% solution of trypsin in PBS was added, and, after several minutes, the cells were gently removed and placed into 110 mL of a 25 mM solution of Hepes in Minimum Essential Medium (MEM), supplemented with 10% v/v inactivated calf serum, 1.1 mL of a 200 mM solution of glutamine in 0.85% saline solution, and 11,000 units of penicillin/11,000 mcg streptomycin.
# Aliquots (5.0 mL each) of the resuspended cell culture were placed into 50 mL Falcon tissue culture flasks, with or without herbicide, and incubated in the dark at 37° C. for 4 days, the herbicide being added in dilute acetone solution as in Example 1. Acetone was also added to the controls to provide a concentration of acetone of 0.2% v/v therein. The amount of herbicide was such as to provide the concentrations specified in Table 2 below.
# Extraction: The media from each of the flasks were placed in glass round bottom tubes, while the cells adhering to the bottom of the flasks were loosened by the addition of 0.5 mL of a 0.25% solution of trypsin in PBS, and after several minutes at 37° C., then washed from the flasks and recombined with their media. Aliquots of 100 μL were then removed from each cell suspension to determine cell density. The remaining 5.4 mL of cell suspension was then sonified for 30 minutes to disrupt the cells.
# Ten mL of basic acetone (90% acetone:10% 0.1 N NH4 OH) was then added to each tube, and the tubes were centrifuged to remove protein and cell debris. Five mL of water was added to the supernatant, followed by 0.5 mL of a saturated aqueous solution of NaCl. The pH was then adjusted to 6.8 by the dropwise addition of 2 M KH2 PO4. The aqueous acetone extract was then loaded onto a C8 Baker Prep column. The columns were dried and then washed with 2 mL of water. The tetrapyrroles were eluted with 3 mL of 90/10 CH3 OH/H2 O. As in Example 1, all these extraction procedures were carried out substantially entirely under non-protoporphrin IX-exciting light (e.g. green light) or in the dark (e.g. in opaque covered containers). The fluorescence of the extracts was then determined on a SPEX spectrofluorometer. Protoporphyrin IX ("Proto IX") accumulation was quantified utilizing predetermined extinction coefficients.
# [5] = target: Protoporphyrinogen Oxidase; experiment: Protoporphyrinogen oxidase assay using isolated enzyme; format: biochemical, Peas (Pisum sativum var. Little Marvel); conditions: isolated pea etioplast enzyme
# Procedure: Plant Material and Homogenization: Peas (Pisum sativum var. Little Marvel) germinated at 20° C. in a dark growth chamber ten days. Plants were illuminated for one hour per day, which allowed for significant leaf expansion while minimizing chlorophyll synthesis. Leaves were pale yellow-green in color.
# The leaves were then homogenized in 500 mL of grinding media consisting of 0.5 M mannitol, 10 mM HEPES, 20 mM TES, 1 mM EDTA, 1 mM MgCl2, 5 mM cysteine, and 0.2 BSA, pH 7.7. The brei was then passed through four layers of cheesecloth, then through a 43-micron nylon mesh. The hemogenate was then centrifuged at 4000 g for 3 minutes. The resultant pellet was utilized for plastid isolation.
# Etioplast Isolation and Purification: The pellet (plastid fraction) was resuspended in 40 mL of assay media (grinding media minus cysteine and containing 1 mM DTE and 1% ESA) and centrifuged at 150 g to remove cellular debris. The resultant supernatant was centrifuged at 4000 g, and the resuspended pellets were overlaid on 40% Percoll. […]
# Protein content was determined utilizing the BioRad method. […]
# Purification Utilizing DEAE Chromatography: A 0.75 mL volume of plastid-solubilized-enzyme preparation was loaded onto a Waters Protein-Pak DEAE-5PW column (8 mm×7.5 cm) equilibrated with Elution Buffer. […] Peaks were detected using a Waters 494 UV detector at 260 nm, sensitivity:1AU. […]
# [6] = test system: HeLa cells; experiment: Tetrapyrrole accumulation in treated HeLa cells (Example 1); format: cell-based, human; conditions: 100 μM agent, 3 days in the dark
# Procedure: HeLa cells (a human tumor cell line commonly employed for tumor research and obtained from the American Type Culture Collection), in logarithmic growth phase (having been cultured at 37° C. for five days in one-liter Falcon tissue culture flasks), were washed in phosphate buffered saline (PBS). A 0.25% solution of trypsin in PBS (2 mL) was added, and, after several minutes, the cells were gently removed from the flask and placed into 110 mL of a 25 mM solution of Hepes in Minimum Essential Medium (MEM) supplemented with 10% v/v inactivated calf serum, 1.1 mL of a 200 mM solution of glutamine in 0.85% saline solution, and 11,000 units of penicillin/11,000 mcg streptomycin.
# Then, 5.0 mL aliquots of the resulting resuspended cell culture were each placed into a 50 mL Falcon tissue culture flask and (except for the control) mixed with the treating agent. The aliquots were then incubated in the dark at 37° C. for three days. The cells were then removed and extracted under green light in the following manner:
# Cells were removed from the bottom of the flask with the addition of 0.8 mL of a 0.25% solution of trypsin in PBS. After 1 hour of incubation in the dark, cells and medium were removed from the flasks, placed into round bottom centrifuge tubes, and then subjected to two rounds of freeze-thaw conditions to disrupt the cells and allow for extraction.
# Ten mL of basic acetone (90% acetone:10% of 0.1 N NH4 OH) was then added to each tube, and the tubes were centrifuged to remove protein and cell debris. Five mL of water was added to the supernatant, followed by 0.5 mL of a saturated aqueous solution of NaCl. The pH was then adjusted to 6.8 by the dropwise addition of 2 M KH2 PO4. The aqueous acetone extract was then loaded onto a C8 Baker Prep column. The columns were dried and then washed with 2 mL of water. The tetrapyrroles were eluted with 2×1.5 mL volumes of 90/10 CH3 OH/H2 O. Extracts were then quantified on a spectrofluorometer.
# Agent A was supplied as a filter-sterilized 250 mM solution in water, pH 6.5. Agents B, C, D, and E were supplied as 50 mM solutions in acetone. Acetone was also added to the control to provide a concentration of 0.2% v/v therein. The amounts of the agents added to the cell cultures were such as to give the concentrations specified in the Table 1 below. The amounts of the tetrapyrrole protoporphyrin IX ("Proto IX") produced are shown in that Table.
# [7] = test system: enzymatic conversion of Proto IX to magnesium Proto IX; experiment: Conversion of Proto IX to magnesium Proto IX in chloroplast suspension; format: biochemical, Cucumber (Cucumis sativus L.); conditions: 10 μm AFM, in the presence of ATP
# [8] = test system: murine leukemia cells; conditions: cited from earlier work
# [9] = test system: human erythrocytes; conditions: introduced into human erythrocytes; cited from earlier work
# [10] = test system: tumors; conditions: injected into animals; cited from earlier work
structure (smiles),measurement,setting,value
"C#CCOc1cc(-n2nc(C)n(C(F)F)c2=O)c(F)cc1Cl [1-(4-chloro-2-fluoro-5-propargyloxyphenyl) -3-methyl-4-difluoromethyl-Δ^2-1,2,4-triazolin-5-one]",total efflux,[1],over 90%
C#CCOc1cc(-n2nc(C)n(C(F)F)c2=O)c(F)cc1Cl [Agent 7f],activity against mosquito larvae,[2],active
same,activity against cabbage loopers,[3],active
"COC(=O)c1cc(Oc2ccc(C(F)(F)F)cc2Cl)ccc1[N+](=O)[O-] [Agent B, Acifluorfen-methyl]",activity against mosquito larvae,[2],active
same,Amount of Proto IX,[4]; average amount per 10^6 cells,5.20 pmol
same,inhibition at 100 µM,"[4]; Homo sapiens, HeLa, 96 h, 4 days in the dark",99%
same,pI50 (negative log of the I50 Molarity),[5],7.1
same,IC50,[5]; read-out: I50,80 nM
same,Amount of Proto IX,[6],1.3 pmol
same,Fluorescence Emission cps 400/630,[6],12921 cps
same,effect on enzymatic conversion of Proto IX to magnesium Proto IX,[7],no inhibiting effect
same,activity against cabbage loopers,[3],active
"CCOC(=O)C(C)OC(=O)c1cc(Oc2ccc(C(F)(F)F)cc2Cl)ccc1[N+](=O)[O-] (stereo not shown) [lactophen, 1-(carboethoxy)ethyl 5-(2-chloro-4-trifluoromethylphenoxy) -2-nitrobenzoate, reference compound]",total efflux,[1],over 90%
C=CC1=C(C)c2cc3[nH]c(cc4nc(cc5[nH]c(cc1n2)c(C)c5CCC(=O)O)C(CCC(=O)O)=C4C)c(C)c3C=C [protoporphyrin],photosensitizing potency,[8],most potent photosensitizing agent of those tested
same,photosensitizing effect,[9],marked photosensitizing effect
same,protoporphyrin in the tumors after injection,[10],no detectable protoporphyrin in the tumors
